Tests used:
[1] = test system: Townes SCD model mouse; experiment: Effect on SCD anemia mice (RBC, Hb, HCT); assay type: in vivo
Protocol: Throughout the experimental stage, animals were housed in cages in an animal room with 24-hour continuous central air conditioning, temperature set at 20-26° C., relative air humidity set at 40-70%, and a 12-hour light/dark cycle. All animals had free access to food and sterilized drinking water. The animal strain was B6·Cg-Hbb^tm2(HBG1,HBB)Tow/Hbat^ml(HBA)Tow/ShmtJ mice, a Townes SCD model mouse where mouse endogenous hemoglobin is replaced by knocked-in human hemoglobin. Two weeks after birth, mice were ear-punched for identification, and the ear tissue was collected for PCR analysis to determine its genotype. Mice confirmed as B6·Cg-Hbb^tm2(HBG1,HBB)Tow/Hbat^ml(HBA)Tow/ShmtJ were grouped. […] Blood sampling was performed every other week. Mice showing symptoms of anemia were selected for dosing. Animals were randomly divided into groups, 6 animals per group: Vehicle control group (0.1 M meglumine aqueous solution; oral gavage; volume: 6.67 mL/kg), Comp-1 group (30 mpk; oral gavage; volume: 6.67 mL/kg), and EPO group (50 U/30 g body weight; SC injection; MyBioSource, cat. #: MBS650094, erythropoietin alpha). Dosing was administered three times a week (TIW) for 4 consecutive weeks. On days 14 and 28 of dosing, 70 μL of blood was collected from orbit. Collected blood samples were placed in heparin-anticoagulant tubes. 15 μL of the blood sample from the anticoagulant tube was aspirated and added to an Element HT5 Veterinary Hematology Analyzer. RBC, Hb, and HCT in the blood were measured according to the instrument's operating instructions. Data analysis was performed using GraphPad Prism 9.0. […]

[2] = test system: MDS model mice; experiment: Effect on MDS model mice (RBC, Hb, HCT); assay type: in vivo, C57 mice; conditions: 50 U/30 g
[3] = 30 mpk oral gavage TIW group, baseline, average of six mice
[4] = 30 mpk oral gavage TIW, end of the four-week experiment, average of five mice
[5] = 50 U/30 g SC TIW, After 2 weeks of dosing Week 2
[6] = 50 U/30 g SC TIW, After 4 weeks of dosing Week 4
[7] = 50 U/30 g group, Before dosing Week 0

Row | Compound | HCT [1, 3] | Hb [1, 3] | RBC [1, 3] | HCT [1, 4] | Hb [1, 4] | RBC [1, 4] | Mortality ([1]; 30 mpk, oral gavage, TIW, after two weeks of dosing) | Arithmetic mean of HCT hematocrit [1, 5] | Arithmetic mean of HGB hemoglobin content [1, 5] | Arithmetic mean of RBC red blood cell count [1, 5] | Arithmetic mean of HCT hematocrit [1, 6] | Arithmetic mean of HGB hemoglobin content [1, 6] | Arithmetic mean of RBC red blood cell count [1, 6] | Arithmetic mean of HCT hematocrit [1, 7] | Arithmetic mean of HGB hemoglobin content [1, 7] | Arithmetic mean of RBC red blood cell count [1, 7] | Therapeutic effect in the SCD mouse model ([1]; 50 U/30 g, SC injection, TIW, 4 weeks) | Improvement of RBC, Hb, or HCT values [2]
1 | O=C(O)CNC(=O)C1C(=O)N(C2CCCCC2)C(=O)N(C2CCCCC2)C1=O [Daprodustat, reference compound] | 31.8% | 9.1 g/dL | 6.14 M/μL | 35.9% | 10.9 g/dL | 7.54 M/μL | One mouse in the Daprodustat group including six mice in total died |  |  |  |  |  |  |  |  |  |  | 
2 | EPO: EPO positive control; MyBioSource, cat. #: MBS650094, erythropoietin alpha |  |  |  |  |  |  |  | 25.02% | 7.52 g/dL | 5.80 M/μL | 23.25% | 6.87 g/dL | 5.43 M/μL | 27.00% | 8.37 g/dL | 6.25 M/μL | no therapeutic effect in the SCD mouse model | Neither Roxadustat nor EPO improved RBC, Hb, or HCT values

Reference: patent US20260234146A1, “Use of Hypoxia-Inducible Factor-Prolyl Hydroxylase Inhibitor (HIF-PHI) in Rare Anemia” (Kind Pharmaceutical, priority 2023, published 2026)
